The values that follow come from patent US7339039B2, “Nucleic acids encoding receptor recognition factors, and methods of use thereof” (The Rockfeller University, priority 1992, dated 2008).

The target in test [1] is T1, Stat91-DNA complex (Homo sapiens, UniProt P42224).
T1 sequence (P42224 1-750): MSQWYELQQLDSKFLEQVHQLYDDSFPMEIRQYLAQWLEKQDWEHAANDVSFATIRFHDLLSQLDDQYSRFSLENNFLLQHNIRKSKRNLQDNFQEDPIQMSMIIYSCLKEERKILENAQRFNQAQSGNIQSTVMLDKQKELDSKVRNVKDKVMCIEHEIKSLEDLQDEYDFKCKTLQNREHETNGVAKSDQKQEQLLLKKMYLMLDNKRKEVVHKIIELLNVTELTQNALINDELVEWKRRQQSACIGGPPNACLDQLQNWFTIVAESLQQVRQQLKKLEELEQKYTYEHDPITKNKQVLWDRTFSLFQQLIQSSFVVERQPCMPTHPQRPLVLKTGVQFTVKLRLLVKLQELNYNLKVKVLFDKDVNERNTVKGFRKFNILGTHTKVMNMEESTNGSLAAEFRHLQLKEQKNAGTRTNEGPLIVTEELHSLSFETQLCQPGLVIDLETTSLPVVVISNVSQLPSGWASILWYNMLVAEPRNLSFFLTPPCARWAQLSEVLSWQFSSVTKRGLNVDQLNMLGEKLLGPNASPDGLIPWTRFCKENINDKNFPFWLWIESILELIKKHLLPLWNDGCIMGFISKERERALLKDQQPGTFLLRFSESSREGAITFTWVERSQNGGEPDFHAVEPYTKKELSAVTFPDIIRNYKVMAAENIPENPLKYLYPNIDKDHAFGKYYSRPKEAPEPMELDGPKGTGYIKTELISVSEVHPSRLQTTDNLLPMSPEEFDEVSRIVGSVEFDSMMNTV
Briefly: Formation of Stat91-DNA complex in the presence of phosphoamino acids. The format is biochemical. Particulars: 10 mM. The protocol:
(§1) Gel Mobility Shift Assays. Gel mobility shift assays were carried out as described (34). An oligonucleotide corresponding to the GAS element from the human FcγRI receptor gene (Pearse et al. 1993) was synthesized and used for gel mobility shift assays. The oligonucleotide has the following sequence: 5′[…]3′ (SEQ. ID NO:17).
The Stat91 sequence contains an SH2 domain (amino acids 569 to 700, see discussion below), and we knew that Tyr-701 was the single phosphorylated tyrosine residue required for DNA binding activity (supra, 45). […] We therefore sought evidence that the dimerization of Stat91 involved specific SH2-phosphotyrosine interaction using the dissociation and reassociation assay.

The subject of test [2] is ISGF-3 formation / IFN-α induced transcription. Particulars: cited from earlier work.
For test [3], the system named is Stat84 and Stat91L homodimers. Briefly: Dissociation-reassociation analysis (gel mobility shift with GAS probe). The test is classed as biochemical, human. The following applies: for dissociation of the dimers and block of formation of DNA protein complexes: peptide 160 μM. As for the experimental part: as §1
Dissociation-reassociation Analysis. Extracts were incubated with various concentrations of peptides or fusion proteins, and ^32P-labeled GAS oligonucleotide probe in gel shift buffer was then added to promote the formation of protein-DNA complex followed by mobility shift analysis.
Dimerization of Stat91 Involves Phosphoryrosyl Peptide and SH2 Interactions. Based on the results described above, we devised a dissociation-reassociation assay in the absence of guanidium hydrochloride to explore the possible nature of interactions involved in dimer formation (FIG. 20). When the short and the long forms of a homodimer are mixed with a dissociating agent (e.g., a peptide containing the putative dimerization domain), the subunits of the dimer should dissociate (in a concentration dependent fashion) due to the interaction of the agent with the dimerization domain(s) of the protein. When a specific DNA probe is subsequently added to the mixture to drive the formation of a stable protein-DNA complex, the detection of any reassociated or remaining dimers can be assayed. In the presence of low concentration of the dissociating agent, addition of DNA to form the stable protein-DNA complex should lead to the detection of homodimers as well as heterodimers. At high concentration of the dissociating agent, subunits of the dimer may not be able to re-form and no DNA-protein complexes would be detected (FIG. 20).

Square brackets hold non-standard residues; d marks the D form. Ends that are not written are not given here. pY = N[C@@H](Cc1ccc(OP(=O)(O)O)cc1)C(=O)O

Regarding `N[C@@H](COP(=O)(O)O)C(=O)O` [phosphoserine], the “prevention of formation of Stat91-DNA complex” value in test [1] was “not”.

As for `C[C@@H](OP(=O)(O)O)[C@H](N)C(=O)O` [phosphothreonine], the “prevention of formation of Stat91-DNA complex” value in test [1] was “not”.

As for `N[C@@H](Cc1ccc(OP(=O)(O)O)cc1)C(=O)O` [phosphotyrosine], in test [1], the “prevention of formation of Stat91-DNA complex” value is reported as “could prevent the formation”. `CN[C@@H]1C[C@H]2O[C@@](C)([C@@H]1OC)n1c3ccccc3c3c4c(c5c6ccccc6n2c5c31)C(=O)NC4` [staurosporine]: in test [2], the “IFN-α induction of ISGF-3 formation” value was “blocks” and the “IFN-α induction of transcription” value is “blocks”. With “EPQY*EEIPIYL (EPQ[pY]EEIPIYL) [SrcY-p, reference compound]”, the “effect on Stat91 dimer formation” value in test [3] (FIG. 21 lanes 11-13 (4, 40, 160 μM)) is “no effect”. Consider GY*IKTE (G[pY]IKTE) [91Y-p], for which the “exchange between the subunits of Stat84 dimers and Stat91L dimers to form heterodimers” value in test [3] (peptide 4 μM, extracts of IFN-γ-treated C84 and C91L cells) was “clearly promoted the exchange”. The “dissociation of the dimers and block of formation of DNA protein complexes” value in test [3] was “dissociated the dimers and blocked the formation of DNA protein complexes”. Take “KVNLQERRKY*LKHR (KVNLQERRK[pY]LKHR) [113Y-p]”: the “exchange of subunits between Stat84 and Stat91L” value in test [3] (at concentrations similar to 91Y-p) is on record as “promoted the exchange of subunits”. The “prevention of the gel shift bands” value in test [3] (peptide 40 μM) is listed as “prevented the gel shift bands almost completely”. Regarding LDGPKGTGYIKTELI [91Y], in test [3], the “dissociation of the dimers and block of formation of DNA protein complexes” value is “not”. Moreover, the “effect on the two gel shift bands characteristic of Stat84 or Stat91L homodimers” value in test [3] (various concentrations of peptide (4, 40, 160 μM)) is listed as “no effect”.
